US20210107874A1, “PHARMACEUTICAL FORMULATION OF CROTONYLAMINOPYRIDINE SALT” (priority 2017, published 2021)
Several values for one entry are separate records, joined by “and”; a condition that tells them apart may be missing. Identical values can stand only once.

Tests used:
[1] = Solubility of salts of compound 4: compound added in portions to acid in water until no clear solution; assay type: physicochemical; conditions: for Dissolved g of 4 / pH: clear solution
Procedure: A defined amount of an acid (1.0 g) was weighed into a flask and dissolved in water (10 ml). […] The pH value was measured after each addition.
Thus 8 g of compound 4 in 10 ml of water can be dissolved.

[2] = Stability tests of solutions of compound 4 with equimolar acids in water; assay type: physicochemical; conditions: for solubility: water with equimolar acid, thermodynamic from solid
Procedure: Equimolar amounts of compound 4 and acids were diluted with water: Water was added until all residues were dissolved. 200, 100 and 50 mg of compound 4 was used, each amount was combined with each acid of the following list. The solutions were equilibrated at room temperature and then held for 7 days at room temperature and thereafter 7 days at 8° C.

[3] = PK studies of formulations, plasma by HPLC-MS/MS; assay type: in vivo; conditions: SC, Cattle
Procedure: The following formulations were prepared and administered to animals. Blood samples were collected at pre-defined time points and the amount of compound present in plasma at the time of sampling was determined by HPLC-MS/MS. Pharmacokinetic parameters were then calculated: Cmax, Tmax, Tlast, AUC. [table]

[4] = 0.5 g Acetic acid in 10 ml water
[5] = 1.0 g Citric acid in 10 ml water
[6] = 1.0 g Tartaric acid in 10 ml water
[7] = Form O62.5 (FormO type: L-tartaric acid, NaOH to pH 4.4, water), 1.25 mg/kg

CCOc1cc(NCCNC(=O)/C=C/C(F)(F)F)ccn1 [Compound 4, (E)-N-[2-[(2-ethoxy-4-pyridyl)amino]ethyl]-4,4,4-trifluoro-but-2-enamide]
Dissolved g of 4 [1, 4]: 1 g
pH [1, 4]: 4.6
Dissolved g of 4 [1, 5]: 2.5 g
pH [1, 5]: 4.4
Dissolved g of 4 ([1]; 1.0 g Maleic acid in 10 ml water): <0.1 g
Dissolved g of 4 [1, 6]: 3.5 g
pH [1, 6]: 4.2
appearance of solution ([1]; 2 g compound 4 and 1 g tartaric acid in 2.5 ml water): clear solution
amount that can be dissolved in 10 ml of water ([1]; with tartaric acid, scaled from 2 g in 2.5 ml): 8 g
pH ([2]; equimolar Citric acid in water): 3.41
pH ([2]; equimolar D-glucoronic acid in water): 4.15
pH ([2]; equimolar Ethanesulfonic acid in water): 1.23
pH ([2]; equimolar Fumaric acid in water): 3.74
pH ([2]; equimolar Hydrochloric acid in water): 1.15
pH ([2]; equimolar L-lactic acid in water): 4.28
pH ([2]; equimolar Methanesulfonic acid in water): 1.28
pH ([2]; equimolar Oxalic acid in water): 2.14
pH ([2]; equimolar Sulfuric acid in water): 0.06
pH ([2]; equimolar Tartaric acid in water): 3.35
solubility ([2]; pH 0.06, water, equimolar Sulfuric acid in water): > 200 mg/mL
solubility ([2]; pH 1.15, water, equimolar Hydrochloric acid in water): > 200 mg/mL
solubility ([2]; pH 1.23, water, equimolar Ethanesulfonic acid in water): > 200 mg/mL
solubility ([2]; pH 1.28, water, equimolar Methanesulfonic acid in water): > 200 mg/mL
solubility ([2]; pH 2.14, water, equimolar Oxalic acid in water): > 200 mg/mL
solubility ([2]; water, equimolar Citric acid in water): > 200 mg/mL
solubility ([2]; water, equimolar D-glucoronic acid in water): > 100 mg/mL
solubility ([2]; water, equimolar Fumaric acid in water): > 200 mg/mL
solubility ([2]; water, equimolar L-lactic acid in water): > 100 mg/mL
solubility ([2]; water, equimolar Phosphoric acid in water): > 100 mg/mL
solubility ([2]; water, equimolar Tartaric acid in water): > 200 mg/mL
solubility ([2]; water, equimolar acetic acid in water): < 50 mg/mL
solubility ([2]; water, equimolar benzenesulfonic acid in water): < 50 mg/mL
solubility ([2]; water, equimolar benzoic acid in water): < 50 mg/mL
solubility ([2]; water, equimolar ethanedisulfonic acid in water): < 50 mg/mL
solubility ([2]; water, equimolar isethionic acid in water): > 200 mg/mL
solubility ([2]; water, equimolar maleic acid in water): < 50 mg/mL
solubility ([2]; water, equimolar malonic acid in water): < 50 mg/mL
solubility ([2]; water, equimolar p-toluenesulfonic acid in water): < 50 mg/mL
solubility ([2]; water, equimolar saccharin in water): < 50 mg/mL
solubility ([2]; water, equimolar succinic acid in water): < 50 mg/mL
Tlast ([3]; Form A50 (NMP, propylene glycol, water), 1.25 mg/kg): 6.5 h
Tlast ([3]; Form B62.5 (dimethyl acetamide, propylene glycol, water), 1.25 mg/kg): 5.33 h
AUC [3, 7]: 0.372 µg·h/mL
Cmax [3, 7]: 0.428 µg/mL
Tlast [3, 7]: 4 h and 3 h
Tmax [3, 7]: 18.6 min
Tlast ([3]; FormC62.5 (propylene glycol, ethanol, Transcutol P), 1.25 mg/kg): 10.7 h
Tlast ([3]; FormD62.5 (PEG 300, ethanol, Transcutol P), 1.25 mg/kg): 4 h
Tlast ([3]; FormE62.5 (polyethylene glycol 300, ethyl alcohol 96%, water), 1.25 mg/kg): 5 h
Tlast ([3]; FormF62.5 (polyethylene glycol, 1-octanol, 2-pyrrolidone), 1.25 mg/kg): 8 h
Tlast ([3]; FormG62.5 (benzyl alcohol, ethyl alcohol 96%, polyethylene glycol 300), 1.25 mg/kg): 5.33 h
Tlast ([3]; FormH62.5 (DMA, DMSO, 2-pyrrolidone), 1.25 mg/kg): 4 h
Tlast ([3]; FormJ62.5 (DMSO, 2-pyrrolidone, ethyl lactate), 1.25 mg/kg): 4 h
Tlast ([3]; FormK62.5 (2-pyrrolidone, Transcutol P, ethyl lactate), 1.25 mg/kg): 4 h
Tlast ([3]; FormL50 (DMA, propylene glycol, water), 1.25 mg/kg): 4 h
Tlast ([3]; FormM62.5 (L-tartaric acid, sodium hydroxide up to pH 4.6, water), 1.25 mg/kg): 3.33 h
Tlast ([3]; FormO60 (FormO type: L-tartaric acid, NaOH to pH 4.4, water), 1 mg/kg): 2.67 h
Tlast ([3]; FormP62.5 (L-tartaric acid, 2-pyrrolidone, NaOH, water), 1.25 mg/kg): 6.67 h
Tlast ([3]; FormQ62.5 (L-tartaric acid, sodium carboxymethyl cellulose, NaOH up to pH 4.3, water), 1.25 mg/kg): 4 h
